# Reference: patent US5459160A, “Iridoid derivatives and the use thereof as a drug” (Tsumura & Co., priority 1990, dated 1995)
# Where two headings read alike, the source gives them in different places.
# Legend:
# [1] = system: bile secretion; test: Cholagogic action, bile secretion (Experimental Example 5); assay type: in vivo, male Wistar rats; details: intraduodenal
# Description: After male Wistar rats 7 weeks old were fasted for 24 hours, they were anesthetized by the interperitoneal administration of 1.25 g/kg (volume 2 m.iota./kg) of urethane. A polyethylene canula (SP-10, a product of Natsume Seisakusho) was inserted into a bile duct and after the bile was caused to flow out for 30 minutes, the bile was collected in the cource of 1 hour. Thereafter, each test drug was suspended or dissolved in a 1% aqueous Tween-80 solution, and was administered into the duodenum at a rate of 5 m.iota./kg. Furthermore, the bile was collected every hour in the course of five hours, and its weight was measured. Only a 1% Tween-80 solution was given as a control.
# The results are tabulated in Tables 6, 7, 8, 9 and 10, wherein the bile secretion amount every hour was represented by a percentage with the bile secretion amount (mg) one hour before the dose of the test drug being 100.
# [2] = Acute toxicity test; details: mouse, in vivo, ip; male S.P.P. mice, abdominally administered; Table 11
# Description: The acute toxicity test was carried out by abdominally administering each test drug to male S.P.P. mice and determining an LD50 value.
# [3] = system: cholic acid and chenodeoxycholic acid synthetic activity in liver cells; test: Synthetic activity of bile acid (cholic acid and chenodeoxycholic acid) in incubated liver cells (Experimental Example 3); assay type: cell-based, male Wistar rats; details: Rattus norvegicus, Hepatocyte, 24 hours, 37° C., control 100; for activity at 1 µM: 10^-6 M; for activity at 0.1 µM: 10^-7 M; for activity at 0.01 µM: 10^-8 M
# Description: Influences on Synthetic Activity of Bilic Acid in Incubated Liver Cell
# The liver cells were separated from male Wistar rats 5.0-5.5 weeks old using a reflux method in accordance with the method of Nakamura et al (Toshikazu Nakamura "The Experimental Method for the Primary Cultured Hepatocytes", 1987). In this case, the separation of the cells was started at 9-10:00 a.m. The separated liver cells were floated in a Williams E medium inactivated by heat-treatment and containing 10% FBS, 20 mU/m.iota. insulin, […] dexamethasone, 100 IU/m.iota. peniciline and 100 μg/m.iota. streptomycin so that the cell density became 1×10^5 cells/cm^2 /0.2 m.iota.. The liver cells were planted in a cell density of 1×10^5 cells/cm^2 /0.2 m.iota. in a dish having a diameter of 60 mm. After incubation at 37° C. for 4 hours, a medium exchange was made and the medium was changed to 3 m.iota.. Next, [4-^14 C] cholesterol was added in an amount of 11.655 kBq per dish, and a 0.33% ethanol solution of each test drug was added. Control used only 0.33% ethanol. After incubation was carried out at 37° C. for 24 hours, the synthetic activity of cholic acid and chemodexycholic acid generated in the cells and the medium were measured.
# Measurement of Cholic Acid and Chenodeoxycholic Acid Synthetic Activity
# The measurement of cholic acid and chenodeoxycholic acid synthetic activity was carried out in accordance with the method of M. G. Pricen et al (Hans M. G. Pricen, Chrisstine M. G. HuJismans, Folkerr Kuipers, Roel J. Vonk and Herman Jan M. Kempen, J. Clin. Invest., 78: 1064-1071, 1986). Twenty-four hours later, the cells and the medium were collected from the incubated liver cells and the cells were pulverized by a ultrasonic pulverizer. Bile acid was separated and eluted by a column cartridge having an opposite phase system, i.e., "Sep-pak"® C18 (Waters Associates, Milford, Mass.), and the conjugation of conjugated bile acid was hydrolyzed using choloylglycine hydrolase. The extraction of bile acid was carried out using chloroform after the solution was rendered acidic by hydrochloric acid. The extract was dissolved in 100 μ.iota. of water:methanol (1:4, containing 40 μg/10 μ.iota. cholic acid and 100 μg/100 μ.iota. chenodeoxycholic acid). 80 μ.iota. of this solution was spotted onto an aluminum plate (MERCK, ART 5582) and was developed using a developing solution consisting of benzene/1,4-dioxane/acetic acid (20:10:2). After the TLC plate was exposed to an iodine gas stream and each spot of bile acid was confirmed, it was cut off and its radioactivity was measured by a liquid scintillation counter. To correct the proportion of elution of the Sep-pak and the hydroclysis and extraction of conjugated bile acid by choloylglycine hydrolase, 2 nCi of [^3 H(G)] taurocholic acid was added and 3H of the spot of cholic acid was measured after the supersonic pulverization and correction was thus carried out (TsuJita, Y., Kuroda, M., Shimada, Y., Tanzawa, K., Arai, M., Kenko, I., Tanaka, M., Tarumi, C., Watanabe, Y., and Fujii, Biochemical et Biophysics Acta. 877:50-60, 1986).
# Non-radioactive cholic acid and chenodeoxycholic acid were added as a carrier, to clarify the position of the spot by the iodine gas stream when bile acid was developed, but for the β-muricholic acid, the position of the spot was indefinite even when the non-radioactive acids were added. Therefore, the portion estimated by the Rf value described in the reference was cut off and measured again.
# [4] = system: cholesterol synthesis in liver slices; test: Cholesterol synthesis from [1-14C] acetic acid in liver slices (Experimental Example 2); assay type: cell-based, male Wistar rats; details: drug final concentration 0.1-1.0 mM, 37° C., 120 minutes; control 100; Table 2
# Description: Liver slices (0.5 mm) were prepared from male Wistar rats 5 weeks old acclimated for 10 days in a bright/dark inversion raising chamber (bright period: 8:00 p.m.-8:00 a.m.). […] Incubation was carried out at 37° C. for 120 minutes in 95% oxygen and 5% carbon dioxide. The reaction was stopped by adding 1 m.iota. of 15% potassium hydroxide/ethanol, and saponification was carried out at 80° C. for 2 hours. The sterol fraction was extracted by petroleum ether and was evaporated to driness. Thereafter, 1 m.iota. of acetone/ethanol (1:1) and 1 m.iota. of 0.5% digitonine were added, and the mixture was left standing for a night at room temperature. The precipitate was collected by centrifugal separation and was washed with 2 m.iota. of acetone/ether (1:1). The precipitate was further centrifuged. After the supernatant was discarded, the precipitate was dissolved in methanol and its radioactivity was measured.
# [5] = system: hyperlipemia; test: Anti-hyperlipemia test in rats on high fat food (Experimental Example 1); assay type: in vivo, Male Wistar rats; details: peroral once a day, two weeks, control 100, Table 1
# From the text: Male Wistar rats 6.5 weeks old were allowed to freely intake a high fat food (containing 1% of cholesterol, 0.5% of sodium cholate, 12% of beef tallow and 20% of standard chow) in the cource of two weeks, to thus cause an outbreak of hyperlipemia. The dose of the drug was started simultaneously with the application of the high fat food, and was perorally given once a day through a stomach tube until the end of the experiment. The drugs were all suspended in a cane sugar fatty acid ester and were administered. The oily compounds were adjusted in advance to 100 mg/m.iota. by diethyl ether. A suitable amount was collected at the time of the dose and after diethyl ether was evaporated and removed, it was suspended in a cane sugar fatty acid ester (1% ryoto sugar ester) and then given. After the final dose of the drug, the rats were fasted for about 18 hours, and the blood was sampled to measure the blood serum lipid. The blood serum lipid was measured by using a TBA-380 biochemical analyzer (a product of Toshiba Medical Co.,) unless a particular hindrance occurred.
# [6] = 0-1 hour after dose, control 82.9, Table 6
# [7] = 1-2 hour after dose, control 74.1, Table 6
# [8] = 2-3 hour after dose, control 66.1, Table 6
# [9] = 3-4 hour after dose, control 59.8, Table 6
# [10] = 4-5 hour after dose, control 53.3, Table 6
# [11] = Table 4, read-out: Relative amount of synthesized chenodeoxycholic acid
# [12] = Table 4, read-out: Relative amount of synthesized cholic acid
# [13] = Table 3, read-out: Relative amount of synthesized chenodeoxycholic acid
# [14] = Table 3, read-out: Relative amount of synthesized cholic acid
smiles,measurement,setting,value
"C[C@H]1COC(O)[C@H]2[C@@H]1CC[C@@H]2C (stereo partly drawn) [Definite Example 44, (4R, 4aR, 7S, 7aR)-1,3,4,4a, 5,6,7,7a-octahydro-4,7-dimethylcyclopenta[c]pyran-1-ol]","Bile secretion amount, percentage of the hour before dose",[1]; [6],137.2%
same,"Bile secretion amount, percentage of the hour before dose",[1]; [7],95.0%
same,"Bile secretion amount, percentage of the hour before dose",[1]; [8],78.4%
same,"Bile secretion amount, percentage of the hour before dose",[1]; [9],66.5%
same,"Bile secretion amount, percentage of the hour before dose",[1]; [10],59.8%
same,LD50,[2],389 mg/kg
same,activity at 1 µM,[3]; [11],155%
same,activity at 1 µM,[3]; [12],130%
"COC(=O)C1=COC(O)[C@@H]2C(C=O)=CC[C@H]12 (stereo partly drawn) [Definite Example 23, methyl (4aS, 7aS)-7-formyl-1,4a, 5,7a-tetrahydro-1-hydroxycyclopenta[c]pyran-4-carboxylate]",Relative amount of synthesized cholesterol (%),[4],80.1%
"CC1=COC(O)[C@H]2[C@@H]1CC[C@@H]2C (stereo partly drawn) [Definite Example 43, (4aS, 7S, 7aR)-1,4a, 5,6,7,7a-hexahydro-4,7-dimethylcyclopenta[c]pyran-1-ol]","Bile secretion amount, percentage of the hour before dose",[1]; [6],156.2%
same,"Bile secretion amount, percentage of the hour before dose",[1]; [7],95.2%
same,"Bile secretion amount, percentage of the hour before dose",[1]; [8],76.1%
same,"Bile secretion amount, percentage of the hour before dose",[1]; [9],65.7%
same,"Bile secretion amount, percentage of the hour before dose",[1]; [10],58.3%
same,LD50,[2],231 mg/kg
same,activity at 1 µM,[3]; [11],105%
same,activity at 1 µM,[3]; [12],109%
"COC(=O)C1=COC(O)[C@@H]2[C@H](C)CC[C@H]12 (stereo partly drawn) [Definite Example 31, methyl (4aS, 7R, 7aR)-1,4a, 5,6,7,7a-hexahydro-1-hydroxy-7-methylcyclopenta[c]pyran-4-carboxylate]","Bile secretion amount, percentage of the hour before dose","[1]; 0-1 hour after dose, control 84.1, Table 8",126.7%
same,"Bile secretion amount, percentage of the hour before dose","[1]; 1-2 hour after dose, control 72.5, Table 8",88.0%
same,"Bile secretion amount, percentage of the hour before dose","[1]; 2-3 hour after dose, control 63.8, Table 8",73.0%
same,"Bile secretion amount, percentage of the hour before dose","[1]; 3-4 hour after dose, control 56.7, Table 8",63.7%
same,"Bile secretion amount, percentage of the hour before dose","[1]; 4-5 hour after dose, control 51.2, Table 8",55.1%
same,LD50,[2],814 mg/kg
same,activity at 1 µM,[3]; [11],113%
same,activity at 1 µM,[3]; [12],105%
same,Blood serum cholesterol (%),[5]; 10 mg/kg,82.0%
same,Blood serum triglyceride (%),[5]; 10 mg/kg,79.0%
same,Blood serum cholesterol (%),[5]; 30 mg/kg,96.1%
same,Blood serum triglyceride (%),[5]; 30 mg/kg,76.5%
"COC(=O)C1=COC(OC(=O)c2ccccc2)C2C(C)=CCC12 [Definite Example 36, methyl (2S, 4aS, 7aS)-1-benzoyloxy-1,4a, 5,7a-tetrahydro-7-methylcyclopenta[c]pyran-4-carboxylate]",Relative amount of synthesized cholesterol (%),[4],72.4%
"CCOC(C)O[C@@H]1OC=C(C(=O)OC)[C@H]2CC=C(C=O)[C@@H]12 (stereo partly drawn) [Definite Example 22, methyl (1S, 4aS, 7aS)-1-[1-(ethoxy)ethoxy]-7-formyl-1,4a, 5,7a-tetrahydrocyclopenta[c]pyran-4-carboxylate]",Relative amount of synthesized cholesterol (%),[4],86.2%
"C[C@@H](CO)[C@H]1CC[C@H](C)[C@H]1CO [Definite Example 45, (2R)-2-[(1R, 2R, 3S)-2-(hydroxymethyl)-3-methylcyclopent-1-yl]propan-1-ol]","Bile secretion amount, percentage of the hour before dose",[1]; [6],163.8%
same,"Bile secretion amount, percentage of the hour before dose","[1]; 0-1 hour after dose, control 87.7, Table 7",163.4%
same,"Bile secretion amount, percentage of the hour before dose",[1]; [7],99.7%
same,"Bile secretion amount, percentage of the hour before dose","[1]; 1-2 hour after dose, control 75.3, Table 7",99.6%
same,"Bile secretion amount, percentage of the hour before dose","[1]; 2-3 hour after dose, control 65.0, Table 7",75.2%
same,"Bile secretion amount, percentage of the hour before dose",[1]; [8],78.6%
same,"Bile secretion amount, percentage of the hour before dose","[1]; 3-4 hour after dose, control 58.7, Table 7",61.7%
same,"Bile secretion amount, percentage of the hour before dose",[1]; [9],67.8%
same,"Bile secretion amount, percentage of the hour before dose","[1]; 4-5 hour after dose, control 51.8, Table 7",53.3%
same,"Bile secretion amount, percentage of the hour before dose",[1]; [10],59.1%
same,LD50,[2],406 mg/kg
same,activity at 1 µM,[3]; [13],152%
same,activity at 1 µM,[3]; [14],146%
same,activity at 0.1 µM,[3]; [13],119%
same,activity at 0.1 µM,[3]; [14],121%
same,activity at 0.01 µM,[3]; [13],112%
same,activity at 0.01 µM,[3]; [14],108%
"COC(=O)C1=CO[C@@H](OC(C)=O)[C@@H]2C(C)=CC[C@H]12 [Definite Example 38, methyl (1S, 4aS, 7aS)-1-acetoxy-1,4a, 5,7a-tetrahydro-7-methylcyclopenta[c]pyran-4-carboxylate]",Relative amount of synthesized cholesterol (%),[4],72.8%
